{"source": "patent US10583178B2", "about": "“Compositions comprising sulforaphane or a sulforaphane precursor and a mushroom extract or powder” (NUTRAMAX LABORATORIES, INC., priority 2012, dated 2020)", "key": {"[1]": {"test_system": "Nad(P)H:quinone oxidoreductase 1 (NQO-1) gene expression", "assay": "NQO-1 gene expression by quantitative RT-PCR in macrophage cell line RAW 264.7", "format": "cell-based", "settings": "0.5 μM SFN, RAW 264.7, 24 hours", "experimental": "The following study was conducted to determine the effect of the combination of sulforaphane and a maitake mushroom extract containing 20% β-glucans on gene expression of Nad(P)H:quinone oxidoreductase 1 (NQO-1). NQO-1 encodes a protein that is able to metabolize estrogen quinones, preventing them from forming DNA adducts that cause mutations and ultimately carcinogenesis. An increase in NQO-1 expression is favorable for breast, colon, liver, lung, skin and prostate health.\nIn the study, the macrophage cell line RAW 264.7 was treated with DMSO (vehicle control), sulforaphane (SFN), maitake mushroom extract having about 20% beta-glucan content (Maitake), or the combination of sulforaphane and maitake mushroom extract, for 24 hours. […] Gene expression of NQO-1 gene expression was analyzed via quantitative RT-PCR. The results, which are depicted in FIG. 5, show the following: […]\nIn the study, the macrophage cell line RAW 264.7 was treated with DMSO (vehicle control), sulforaphane (SFN), shiitake mushroom extract having at least 20% alpha-glucan content (Shiitake), or the combination of sulforaphane and shiitake mushroom extract, for 24 hours. […] Gene expression of NQO-1 gene expression was analyzed via quantitative RT-PCR. […]"}, "[2]": {"test_system": "NAD(P)H:quinone oxidoreductase (NQO1)", "settings": "oral administration, mammary epithelium; cited from earlier work"}, "[3]": {"test_system": "heme oxygenase-1 (HO-1)", "settings": "oral administration, mammary epithelium; cited from earlier work"}, "[4]": {"test_system": "broccoli sprout-derived myrosinase", "assay": "Consumption of glucoraphanin by myrosinase as a function of ascorbic acid concentration", "format": "biochemical", "settings": "38° C.", "experimental": "About 250 mg of broccoli seed extract containing about 12% (w/w) glucoraphanin were subjected to hydrolysis by a fixed concentration of broccoli sprout-derived myrosinase in the presence of variable concentration of ascorbic acid, ranging from 0 to 600 μmoles/Liter. The reaction mixtures were thermostated at 38° C.; aliquots were withdrawn every 15 minutes for 60 minutes, and concentration of glucoraphanin determined chromatographically. The rate of glucoraphanin consumption was interpreted as the rate its conversion to sulforaphane. Graphical representation of glucoraphanin content reduction as a function of increasing ascorbic acid concentration results in a series of linear plots; the slopes of the linear regression lines reflect the rate of glucoraphanin consumption, in moles/minute. It is apparent that in the presence of 600 μmoles/Liter concentration of ascorbic acid, the reaction rate increased 13-fold relative to that which proceeded in the absence of modulatory effects of ascorbic acid."}, "[5]": {"test_system": "myrosinase", "assay": "Conversion of glucoraphanin to sulforaphane in Simulated Intestinal Fluid", "format": "biochemical, broccoli", "settings": "38° C., 0.25 to 1.00 mmol/Liter, especially at earlier stages", "experimental": "Simulated Intestinal Fluid (SIF) powder, a commercially supplied concentrate closely approximating the human intestinal content in terms of composition, pH and ionic strength, was used. The experiment utilized a USP Dissolution Apparatus 2 (paddles), where into six dissolution vessels 500 mL of Simulated Intestinal Fluid was dispensed, along with 150 mg of freeze-dried broccoli sprout powder as a source of myrosinase. […] Aliquots were withdrawn every 15 minutes, and assayed for sulforaphane."}}}
{"smiles": "C[S+]([O-])CCCCN=C=S", "note": "(stereo not shown) [SFN, 1-isothiocyanato-4-methylsulfinylbutane]", "values": [{"measurement": "Fold Increase in NQO-1 gene expression", "setting": "[1]", "result": 12.96, "unit": "fold"}, {"measurement": "increase in NQO1 enzymatic activity", "setting": "[2]", "result": 3, "unit": "fold"}, {"measurement": "elevated immunostaining of HO-1", "setting": "[3]", "result": 4, "unit": "fold"}]}
{"smiles": "O=C1O[C@H]([C@@H](O)CO)C(O)=C1O", "note": "[Ascorbic Acid, ascorbic acid]", "values": [{"measurement": "glucoraphanin content", "setting": "[4]; 50 μM ascorbic acid, 0 min", "result": 93.36, "unit": "µmol"}, {"measurement": "glucoraphanin content", "setting": "[4]; 50 μM ascorbic acid, 15 min", "result": 89.20, "unit": "µmol"}, {"measurement": "glucoraphanin content", "setting": "[4]; 50 μM ascorbic acid, 30 min", "result": 84.24, "unit": "µmol"}, {"measurement": "glucoraphanin content", "setting": "[4]; 50 μM ascorbic acid, 45 min", "result": 80.30, "unit": "µmol"}, {"measurement": "glucoraphanin content", "setting": "[4]; 50 μM ascorbic acid, 60 min", "result": 76.36, "unit": "µmol"}, {"measurement": "glucoraphanin content", "setting": "[4]; 125 μM ascorbic acid, 0 min", "result": 93.36, "unit": "µmol"}, {"measurement": "glucoraphanin content", "setting": "[4]; 125 μM ascorbic acid, 15 min", "result": 84.52, "unit": "µmol"}, {"measurement": "glucoraphanin content", "setting": "[4]; 125 μM ascorbic acid, 30 min", "result": 75.92, "unit": "µmol"}, {"measurement": "glucoraphanin content", "setting": "[4]; 125 μM ascorbic acid, 45 min", "result": 68.09, "unit": "µmol"}, {"measurement": "glucoraphanin content", "setting": "[4]; 125 μM ascorbic acid, 60 min", "result": 59.41, "unit": "µmol"}, {"measurement": "glucoraphanin content", "setting": "[4]; 250 μM Filtered ascorbic acid, 0 min", "result": 93.36, "unit": "µmol"}, {"measurement": "glucoraphanin content", "setting": "[4]; 250 μM Filtered ascorbic acid, 15 min", "result": 86.31, "unit": "µmol"}, {"measurement": "glucoraphanin content", "setting": "[4]; 250 μM Filtered ascorbic acid, 30 min", "result": 79.44, "unit": "µmol"}, {"measurement": "glucoraphanin content", "setting": "[4]; 250 μM Filtered ascorbic acid, 45 min", "result": 71.94, "unit": "µmol"}, {"measurement": "glucoraphanin content", "setting": "[4]; 250 μM Filtered ascorbic acid, 60 min", "result": 65.18, "unit": "µmol"}, {"measurement": "glucoraphanin content", "setting": "[4]; 250 μM ascorbic acid, 0 min", "result": 93.36, "unit": "µmol"}, {"measurement": "glucoraphanin content", "setting": "[4]; 250 μM ascorbic acid, 15 min", "result": 80.95, "unit": "µmol"}, {"measurement": "glucoraphanin content", "setting": "[4]; 250 μM ascorbic acid, 30 min", "result": 69.06, "unit": "µmol"}, {"measurement": "glucoraphanin content", "setting": "[4]; 250 μM ascorbic acid, 45 min", "result": 57.63, "unit": "µmol"}, {"measurement": "glucoraphanin content", "setting": "[4]; 250 μM ascorbic acid, 60 min", "result": 45.76, "unit": "µmol"}, {"measurement": "glucoraphanin content", "setting": "[4]; 400 μM ascorbic acid, 0 min", "result": 93.36, "unit": "µmol"}, {"measurement": "glucoraphanin content", "setting": "[4]; 400 μM ascorbic acid, 15 min", "result": 78.32, "unit": "µmol"}, {"measurement": "glucoraphanin content", "setting": "[4]; 400 μM ascorbic acid, 30 min", "result": 62.78, "unit": "µmol"}, {"measurement": "glucoraphanin content", "setting": "[4]; 400 μM ascorbic acid, 45 min", "result": 47.67, "unit": "µmol"}, {"measurement": "glucoraphanin content", "setting": "[4]; 400 μM ascorbic acid, 60 min", "result": 33.15, "unit": "µmol"}, {"measurement": "glucoraphanin content", "setting": "[4]; 600 μM ascorbic acid, 0 min", "result": 93.36, "unit": "µmol"}, {"measurement": "glucoraphanin content", "setting": "[4]; 600 μM ascorbic acid, 15 min", "result": 75.02, "unit": "µmol"}, {"measurement": "glucoraphanin content", "setting": "[4]; 600 μM ascorbic acid, 30 min", "result": 55.66, "unit": "µmol"}, {"measurement": "glucoraphanin content", "setting": "[4]; 600 μM ascorbic acid, 45 min", "result": 37.50, "unit": "µmol"}, {"measurement": "glucoraphanin content", "setting": "[4]; 600 μM ascorbic acid, 60 min", "result": 22.09, "unit": "µmol"}, {"measurement": "relation of sulforaphane yield to ascorbic acid concentration", "setting": "[5]", "result": "direct correlation"}]}
